Holding throughout (assay): NCI-60 cell line screen, 48 h
The subject of assay [1] is SNB-75 CNS.
Assay [2] has as its system EKVX NSCLC.
Assay [3] relates to BT-549 breast.
In assay [4] the test system is ACHN renal.
Assay [5] concerns DU-145 prostate.
Assay [6] concerns CAKI-1 renal.
The test system of assay [7] is A498 renal.
The test system of assay [8] is LOX IMVI melanoma.

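Dose response: 5 concentrations. Exposure: 48 h. Format: 96-well plates. Endpoint: linear interpolation; highest concentration if not reached. GI50 marks 50% less growth. TGI marks complete inhibition of growth.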 Some results are limits rather than exact numbers.

For the compound `Cc1nc(-c2ccccc2)c(-c2ccccc2)s1`, the TGI was above 100 µM in assay [1]; 69.4 µM in assay [2]; 67.1 µM in assay [3]; 97.9 µM in assay [4]; above 100 µM in assay [5]; 62.3 µM in assay [6]. The TGI came to 64.4 µM in assay [7] and 37.1 µM in assay [8].
`C=C(C)C1CCC2(C(=O)O)CCC3(C)C(CCC4C5(C)CCC(OC(=O)NCc6ccccc6)C(C)(C)C5CCC43C)C12` (stereo unspecified): the GI50 in assay [1] is 98.4 µM; in assay [2], 1.71 µM; in assay [3], 4.05 µM; in assay [4], 3.29 µM; in assay [5], 4.14 µM; in assay [6], 1.63 µM. For the same compound, the figures for the GI50 in assay [7] and in assay [8] were 2.57 µM and 4.84 µM, respectively. Moreover, the TGI is above 100 µM in assay [1]; above 100 µM in assay [2]; 33.3 µM in assay [3]; above 100 µM in assay [4]; 35.2 µM in assay [5]; 15.7 µM in assay [6]. Moreover, the TGI in assay [7] and in assay [8] was above 100 µM each time.
In the case of `CO[C@H]1C=C[C@@]23c4cc5c(cc4CO[C@]2(O)CN(C)[C@H]3C1)OCO5`, the TGI in assay [1], in assay [2], in assay [3], in assay [4], in assay [5] and in assay [6] was above 100 µM in each case. For the same compound, the TGI in assay [7] and in assay [8] was above 100 µM each time.
`CSc1nc2cc(S(=O)(=O)N3CCCCC3)ccc2s1`: the TGI in assay [1], in assay [2], in assay [3], in assay [4], in assay [5] and in assay [6] was above 100 µM throughout. The TGI in assay [7] and in assay [8] was above 100 µM each time.
As to `CCCCCN(CCCCC)CC(O)c1ccc(Cl)c2ccccc12` (stereo unspecified), the GI50 was 11.7 µM in assay [1]; 10.8 µM in assay [2]; 16.3 µM in assay [3]; 10.3 µM in assay [4]; 12.1 µM in assay [5]; 3.35 µM in assay [6]. For the same compound, the GI50 in assay [7] is 10.3 µM; in assay [8], 3.94 µM. Besides, the TGI in assay [1] is 35.8 µM; in assay [2], 30.4 µM; in assay [3], 33.7 µM; in assay [4] it was 22.5 µM; in assay [5], 30.6 µM; in assay [6], 18.6 µM. The TGI was 29.3 µM in assay [7] and 16.4 µM in assay [8].
Take `O=C1OC(c2ccco2)=N/C1=C\c1cccc([N+](=O)[O-])c1`: the TGI in assay [1], in assay [2], in assay [3], in assay [4], in assay [5] and in assay [6] was above 100 µM each time. Moreover, the TGI in assay [7] and in assay [8] was above 100 µM each time.
On to `O=C(/C=C\n1cnc(-c2cc(C(F)(F)F)cc(C(F)(F)F)c2)n1)NNc1cnccn1`, for which the GI50 in assay [1] was 0.118 µM; in assay [2], 0.0853 µM; in assay [3] it was 0.0385 µM; in assay [4], 0.113 µM; in assay [5], 0.271 µM; in assay [6], 0.0414 µM. Further, the figures for the GI50 in assay [7] and in assay [8] were 0.0216 µM and 0.0446 µM, respectively. Besides, the TGI worked out at 1.97 µM in assay [1]; 14.5 µM in assay [2]; 2.82 µM in assay [3]; 13 µM in assay [4]; 12.6 µM in assay [5]; 12 µM in assay [6]. The TGI turned out to be 0.338 µM in assay [7] and 1.5 µM in assay [8].
Consider `CCCCN1CSC(=S)N(Cc2ccccc2)C1`, for which the TGI is above 100 µM in assay [1]; 78.7 µM in assay [2]; above 100 µM in assay [3]; above 100 µM in assay [4]; above 100 µM in assay [5]; above 100 µM in assay [6]. Besides, the TGI in assay [7] and in assay [8] was above 100 µM throughout.
For the compound `COc1cc(NS(=O)(=O)c2ccc(-c3cnc(C4CC4)o3)cc2)ccc1F`, the GI50 in assay [1] was 0.158 µM; in assay [2] it was 1.13 µM; in assay [3], 2.02 µM; in assay [4] it was 0.594 µM; in assay [5] it was 0.765 µM; in assay [6] it was 0.408 µM. The GI50 in assay [7] is 0.0833 µM; in assay [8], 0.534 µM. Also, the TGI in assay [1] came to 0.604 µM; in assay [2], 95.5 µM; in assay [3] it was 20.3 µM; in assay [4], 46 µM; in assay [5], 58.9 µM; in assay [6] it was 30.6 µM. Further, the figures for the TGI in assay [7] and in assay [8] were 0.892 µM and 17.9 µM, respectively.
With `Cc1ccc2c3c(c(=O)[nH]c2c1)C1(C(C#N)=C(N)O3)c2cc(Br)ccc2-c2ccc(Br)cc21`, the GI50 in assay [1] is 1.51 µM; in assay [2] it was 1.74 µM; in assay [3] it was 3.93 µM; in assay [4], 1.87 µM; in assay [5], 2.98 µM; in assay [6] it was 1.56 µM. Moreover, the GI50 in assay [7] is 1.44 µM; in assay [8] it was 1.68 µM. In addition, the TGI in assay [1] is 3.16 µM; in assay [2], 3.82 µM; in assay [3], 19.8 µM; in assay [4], 4.15 µM; in assay [5], 12.1 µM; in assay [6], 3.23 µM. Also, the TGI in assay [7] amounted to 3.61 µM; in assay [8], 3.25 µM.
Turning to `COc1cc2c3c(n(C)c(=O)c2cc1OC)-c1cc2c(cc1/C3=C\CNCCCN)OCO2`, the GI50 is 0.923 µM in assay [1]; 2.85 µM in assay [2]; 1.91 µM in assay [3]; 0.271 µM in assay [4]; 1.15 µM in assay [5]; 0.848 µM in assay [6]. In addition, the values for the GI50 in assay [7] and in assay [8] were 3.84 µM and 0.162 µM, respectively. For the same compound, the TGI in assay [1] was 9.47 µM; in assay [2], 12.2 µM; in assay [3], 5.22 µM; in assay [4], 2.07 µM; in assay [5] it was 12.8 µM; in assay [6], 16 µM. In addition, the TGI in assay [7] worked out at 12.1 µM; in assay [8], 2.23 µM.

The record behind these values is PubChem BioAssay (NCI).
